# What was measured:
# [1] = Inhibitory activity against recombinant human secretory phospholipase A2 (s-PLA2) by phosphatidylcholine/deoxycholate assay (PC/DOC).
# [2] = target: Phospholipase A2 (Homo sapiens, UniProt P04054); experiment: Inhibition of recombinant human secretory phospholipase A2 (sPLA2), chromogenic screening assay.
# Chain of Phospholipase A2 (P04054 whole entry): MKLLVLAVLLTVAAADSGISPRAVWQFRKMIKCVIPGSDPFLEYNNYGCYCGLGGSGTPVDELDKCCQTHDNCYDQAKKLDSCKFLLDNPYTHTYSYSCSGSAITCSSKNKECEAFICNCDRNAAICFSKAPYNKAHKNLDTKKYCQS
Structure (SMILES),IC50 [1] [nM],IC50 [2] [nM]
COC(=O)COc1cccn2c(Cc3ccccc3-c3ccccc3)c(C)c(C(=O)C(N)=O)c12 [(1-Aminooxalyl-3-biphenyl-2-ylmethyl-2-methyl-indolizin-8-yloxy)-acetic acid methyl ester],1.4,8
CCc1c(C(=O)C(N)=O)c2c(OCC(=O)OC)cccn2c1Cc1cccc(-c2ccccc2)c1 [(1-Aminooxalyl-3-biphenyl-3-ylmethyl-2-ethyl-indolizin-8-yloxy)-acetic acid methyl ester],4.2,9
CCc1c(C(=O)C(N)=O)c2c(OCC(=O)O)cccn2c1CC1CCCCCC1 [(1-Aminooxalyl-3-cycloheptylmethyl-2-ethyl-indolizin-8-yloxy)-acetic acid],100,23
COC(=O)COc1cccn2c(CC3CCCCC3)c(C3CC3)c(C(=O)C(N)=O)c12 [(1-Aminooxalyl-3-cyclohexylmethyl-2-cyclopropyl-indolizin-8-yloxy)-acetic acid methyl ester],160,43
CCc1c(C(=O)C(N)=O)c2c(OCC(=O)O)cccn2c1CC1CCCCC1 [(1-Aminooxalyl-3-cyclohexylmethyl-2-ethyl-indolizin-8-yloxy)-acetic acid],30,21
NC(=O)C(=O)c1c(C2CC2)c(CC2CCCC2)n2cccc(OCC(=O)O)c12 [(1-Aminooxalyl-3-cyclopentylmethyl-2-cyclopropyl-indolizin-8-yloxy)-acetic acid],88,29
Cc1c(C(=O)C(N)=O)c2c(OCC(=O)O)cccn2c1CC1CCCC1 [(1-Aminooxalyl-3-cyclopentylmethyl-2-methyl-indolizin-8-yloxy)-acetic acid],22,14
CCc1c(C(N)=O)c2c(OCC(=O)O)cccn2c1Cc1cccc2ccccc12 [(1-Carbamoyl-2-ethyl-3-naphthalen-1-ylmethyl-indolizin-8-yloxy)-acetic acid],135,30
CCc1c(CC(N)=O)c2c(OCC(=O)O)cccn2c1Cc1ccccc1 [(3-Benzyl-1-carbamoylmethyl-2-ethyl-indolizin-8-yloxy)-acetic acid],28,13
NC(=O)Cc1c(C2CC2)c(Cc2ccccc2-c2ccccc2)n2cccc(OCC(=O)O)c12 [(3-Biphenyl-2-ylmethyl-1-carbamoylmethyl-2-cyclopropyl-indolizin-8-yloxy)-acetic acid],26,13
CCc1c(CC(N)=O)c2c(OCC(=O)O)cccn2c1Cc1ccccc1-c1ccccc1 [(3-Biphenyl-2-ylmethyl-1-carbamoylmethyl-2-ethyl-indolizin-8-yloxy)-acetic acid],14,14
CCCC(C)Cc1c(CC)c(C(=O)C(N)=O)c2c(OCC(=O)O)cccn12 (configuration not stated) [[1-Aminooxalyl-2-ethyl-3-(2-methyl-pentyl)-indolizin-8-yloxy]-acetic acid],78,17
CCc1c(C(=O)C(N)=O)c2c(OCC(=O)O)cccn2c1Cc1ccccc1[N+](=O)[O-] [[1-Aminooxalyl-2-ethyl-3-(2-nitro-benzyl)-indolizin-8-yloxy]-acetic acid],120,36
CCc1c(C(=O)C(N)=O)c2c(OCC(=O)O)cccn2c1Cc1cccc(OC)c1 [[1-Aminooxalyl-2-ethyl-3-(3-methoxy-benzyl)-indolizin-8-yloxy]-acetic acid],30,21
CCc1c(C(=O)C(N)=O)c2c(OCC(=O)O)cccn2c1Cc1cccc(C(F)(F)F)c1 [[1-Aminooxalyl-2-ethyl-3-(3-trifluoromethyl-benzyl)-indolizin-8-yloxy]-acetic acid],3,9
CCc1c(C(=O)C(N)=O)c2c(OCC(=O)OC)cccn2c1C/C=C/c1ccccc1 [[1-Aminooxalyl-2-ethyl-3-((E)-3-phenyl-allyl)-indolizin-8-yloxy]-acetic acid methyl ester],80,38
